Assay results: patent US20120277161A1, “INHIBITION OF MULTIPLE CELL ACTIVATION PATHWAYS” (INTER-K PTY LIMITED, priority 2009, published 2012)

Legend:
[1] = target: MEK1 (h) (Homo sapiens, UniProt Q02750); experiment: MEK1 kinase activity assay; type: biochemical
Procedure: The reaction is initiated by the addition of the MgATP. After incubation for 40 minutes at room temperature, 5 μL of this incubation mix is used to initiate an ERK2 (m) assay.

[2] = target: PKB alpha (Homo sapiens, UniProt P31749); experiment: PKB kinase activity assay; type: biochemical; settings: 20 μM, relative to control
Chain of PKB alpha (P31749 whole entry): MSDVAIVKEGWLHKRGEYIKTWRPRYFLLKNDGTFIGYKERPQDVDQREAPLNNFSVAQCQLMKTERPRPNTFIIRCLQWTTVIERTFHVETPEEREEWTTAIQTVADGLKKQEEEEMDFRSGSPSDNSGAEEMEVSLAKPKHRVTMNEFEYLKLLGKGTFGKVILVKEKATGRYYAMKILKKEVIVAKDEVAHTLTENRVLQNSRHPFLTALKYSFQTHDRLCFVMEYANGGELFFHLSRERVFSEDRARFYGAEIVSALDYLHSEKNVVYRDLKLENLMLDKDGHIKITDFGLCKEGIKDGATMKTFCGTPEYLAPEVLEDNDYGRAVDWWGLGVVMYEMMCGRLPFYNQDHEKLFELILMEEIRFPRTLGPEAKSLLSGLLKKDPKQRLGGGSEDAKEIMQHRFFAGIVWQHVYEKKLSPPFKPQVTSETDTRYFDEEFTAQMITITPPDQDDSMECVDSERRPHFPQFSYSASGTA
Procedure: In a final reaction volume of 25 μL, PKB(h) (5-10 mU) is incubated with 8 mM MOPS pH 7.0, 0.2 mM EDTA, 30 μM GRPRTSSFAEGKK (SEQ ID No. 26), 10 mM MgAcetate and [γ-33P-ATP] (specific activity approx. 500 cpm/pmol, concentration as required). The reaction is initiated by the addition of the MgATP mix. After incubation for 40 minutes at room temperature, the reaction is stopped by the addition of 5 μL of a 3% phosphoric acid solution. 10 μL of the reaction mixture is then spotted onto a P30 filtermat and washed three times for 5 minutes in 75 mM phosphoric acid and once in methanol prior to drying and scintillation counting.

[3] = target: mTOR (Homo sapiens, UniProt P42345); experiment: mTOR activity; type: biochemical; settings: 20 μM, data not shown
[4] = system: HL60 leukemic cells; experiment: MTT proliferation, HL60 cells; type: cell-based; settings: MTT assay, data not shown; read-out: IC50 inhibition of proliferation of HL60 leukemic cells
[5] = system: HT29 human colon cancer cells; experiment: Cell proliferation (MTT) assay, HT29 cells; type: cell-based; settings: MTT, 48 hours
Procedure: 6.1 Cell Proliferation (MTT) Assay Single cell suspensions of viable trypsinised cells were seeded into 96-well tissue culture plates at a density of 2×10^3 cells per well in a volume of 100 μl of a suitable culture media supplemented with heat inactivated foetal calf serum (FCS) (e.g., Dulbecco's Modified Eagles Medium (DMEM), with 10% v/v FCS, 1% L-glutamine, 2% (v/v) Hepes, and antibiotics). A set of triplicate wells was prepared for each concentration of the peptide dendrimer being tested. Additional sample wells containing untreated cells or media alone were set up in each treatment plate and processed in parallel as reference controls. A zero-time plate of untreated cells and media-alone wells was simultaneously prepared and an MTT assay carried out on this plate at the time of addition of the kinase inhibitor (i.e., polypeptide or dendrimer) to treatment plates. All plates were cultured for 24 hours before addition of the test dendrimer.
To prepare the MTT solution 100 mg of MTT (3-(4,5-dimethylthiazolyl-2)-2,5-diphenyltetrazolium bromide) (Cat #. M-128, Sigma, St Louis Mo.), is mixed with 20 ml of PBS at pH 7.4. The resulting solution is filter sterilized (0.2 μM syringe filter) and stored at 4° C. protected from light until use. MTT substrate is cleaved in growing cells to yield a water insoluble salt. After solubilisation of the salt crystals, a coloured product is produced the measurement of which allows quantitation of the proliferative activity of the cultured cells.
Appropriate concentrations of the kinase inhibitor were prepared by dilution of freshly prepared sterile 1 mM stock solutions into cell culture media to give a final well volume of 200 μl containing 10% v/v FCS. The zero-plate was processed by addition of MTT at this time. Cell culture was continued for a further 24 or 48 hours before addition of 20 μl of MTT in PBS (5 mg/ml, 0.2 um filter sterilised). The MTT cell proliferation assay measures cell proliferation rate and, in instances where cell viability is compromised, the assay indicates a comparative reduction in cell viability. After a 3 hour incubation in the presence of MTT (5% CO2 in air at 37° C.), plates were centrifuged at 450 g for 5 minutes, supernatant was removed by gentle suction and precipitated tetrazolium salt resuspended into 150 μl DMSO:glycine (0.1M glycine, 0.1M NaCl pH 10.5) (6:1 v/v) solution. Plates were gently vortexed to complete solubilisation of crystalline material and absorbance was read at 550 nm using a microplate reader. Sample data were processed to determine the comparative growth of treated samples relative to untreated controls.
HT29 cells were cultured for 48 hours in the presence of selected dendrimers and proliferation of the cells was assessed by MTT assay essentially as described in Example 6.1. The results were calculated as percentage proliferation of control cells (not treated with dendrimer).

[6] = target: PI3K gamma (Homo sapiens, UniProt P48736); experiment: PI3K HTRF activity assay; type: biochemical; settings: final concentration 50 μM
Chain of PI3K gamma (P48736 whole entry, species assumed, the tested form may be a part): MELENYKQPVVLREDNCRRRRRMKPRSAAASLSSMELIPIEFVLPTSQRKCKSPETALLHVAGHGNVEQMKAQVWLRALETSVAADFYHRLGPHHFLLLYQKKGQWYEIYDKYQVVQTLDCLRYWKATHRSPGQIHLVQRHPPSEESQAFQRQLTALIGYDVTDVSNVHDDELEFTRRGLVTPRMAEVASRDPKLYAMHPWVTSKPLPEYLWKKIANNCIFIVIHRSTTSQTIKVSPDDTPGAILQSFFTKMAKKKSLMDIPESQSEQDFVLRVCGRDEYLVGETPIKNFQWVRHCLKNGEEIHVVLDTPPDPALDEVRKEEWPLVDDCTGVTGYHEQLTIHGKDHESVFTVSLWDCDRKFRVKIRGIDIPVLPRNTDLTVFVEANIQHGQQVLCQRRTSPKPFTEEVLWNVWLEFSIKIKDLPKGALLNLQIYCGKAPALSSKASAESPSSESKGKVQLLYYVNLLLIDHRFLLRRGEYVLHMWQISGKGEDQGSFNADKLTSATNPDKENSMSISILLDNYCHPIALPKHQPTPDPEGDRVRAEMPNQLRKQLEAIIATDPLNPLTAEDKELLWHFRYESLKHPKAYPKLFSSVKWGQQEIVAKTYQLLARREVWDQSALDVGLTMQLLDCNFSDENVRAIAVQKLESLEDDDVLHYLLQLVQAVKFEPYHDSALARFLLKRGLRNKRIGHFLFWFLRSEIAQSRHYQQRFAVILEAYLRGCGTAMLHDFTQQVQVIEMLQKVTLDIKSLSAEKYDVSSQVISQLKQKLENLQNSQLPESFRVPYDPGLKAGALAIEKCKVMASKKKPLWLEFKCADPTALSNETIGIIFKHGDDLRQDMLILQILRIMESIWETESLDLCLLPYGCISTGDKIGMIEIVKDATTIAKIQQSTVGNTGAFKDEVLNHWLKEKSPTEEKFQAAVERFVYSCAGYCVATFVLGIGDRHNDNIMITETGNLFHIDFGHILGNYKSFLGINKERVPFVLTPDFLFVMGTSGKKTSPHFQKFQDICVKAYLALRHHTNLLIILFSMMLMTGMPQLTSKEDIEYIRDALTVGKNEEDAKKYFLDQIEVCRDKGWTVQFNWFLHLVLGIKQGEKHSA
Procedure: In a final reaction volume of 20 μL, the test PI3K is incubated in assay buffer containing 10 μM phosphatidylinositol-4,5-bisphosphate and MgATP. The reaction is initiated by the addition of the MgATP mix. After incubation for 30 minutes at room temperature, the reaction is stopped by the addition of 5 μL of stop solution containing EDTA and biotinylated phosphatidylinositol-3,4,5-trisphosphate. Finally, 5 μL of detection buffer is added (containing europium-labelled anti-GST monoclonal antibody, GST-tagged GRP1 PH domain and streptavidin-allophycocyanin). The test plate is then read in time-resolved fluorescence mode and the homogenous time-resolved fluorescence (HTRF) signal is determined according to the formula HTRF=10000×(Em665 nm/Em620 nm).

Row | % Kinase inhibition MEK1 ([1]; 20 μM, relative to control) [%] | Percentage (%) kinase inhibition MEK1 ([1]; dendrimer conc. 1 μM) [%] | Percentage (%) kinase inhibition MEK1 ([1]; dendrimer conc. 2 μM) [%] | Percentage (%) kinase inhibition MEK1 ([1]; dendrimer conc. 250 nm) [%] | Percentage (%) kinase inhibition MEK1 ([1]; dendrimer conc. 500 nm) [%] | % Kinase inhibition PKB alpha [2] [%] | effect on activity of mTOR [3] | IC50 [4] [nM] | Molecule | inhibition of proliferation of HT29 cells [5] | PIK3 gamma % activity relative to control [6] [%] | inhibition at 1 µM ([1]; dendrimer conc. 1 μM, read-out: Percentage (%) kinase inhibition MEK1) [%] | dendrimer concentration required for total kill, HT29 cells [5] [µM]
1 | 90 | 76 | 88 | 2 | 34 | 29 | without any effect | 2000 | Dend 10-10(4) whose RSKAKNPLYR peptides are entirely D-amino acids and pegylated with two ethylene glycol units [Dend 10-10(4)DP] | substantially greater inhibition of proliferation |  |  | 
2 |  |  |  |  |  |  |  |  | CC(C)C[C@H](NC(=O)[C@@H]1CCCN1C(=O)[C@H](CC(N)=O)NC(=O)[C@H](CCCCN)NC(=O)[C@H](C)NC(=O)[C@H](CCCCN)NC(=O)[C@H](CO)NC(=O)[C@@H](N)CCCNC(=N)N)C(=O)N[C@@H](Cc1ccc(O)cc1)C(=O)N[C@@H](CCCNC(=N)N)C(=O)NCCCC[C@H](NC(=O)[C@H](CCCCNC(=O)[C@H](CCCCNC(=O)[C@H](CCCNC(=N)N)NC(=O)[C@H](Cc1ccc(O)cc1)NC(=O)[C@H](CC(C)C)NC(=O)[C@@H]1CCCN1C(=O)[C@H](CC(N)=O)NC(=O)[C@H](CCCCN)NC(=O)[C@H](C)NC(=O)[C@H](CCCCN)NC(=O)[C@H](CO)NC(=O)[C@@H](N)CCCNC(=N)N)NC(=O)[C@H](CCCNC(=N)N)NC(=O)[C@H](Cc1ccc(O)cc1)NC(=O)[C@H](CC(C)C)NC(=O)[C@@H]1CCCN1C(=O)[C@H](CC(N)=O)NC(=O)[C@H](CCCCN)NC(=O)[C@H](C)NC(=O)[C@H](CCCCN)NC(=O)[C@H](CO)NC(=O)[C@@H](N)CCCNC(=N)N)NC(=O)[C@H](CCCCNC(=O)[C@H](CCCNC(=N)N)NC(=O)[C@H](Cc1ccc(O)cc1)NC(=O)[C@H](CC(C)C)NC(=O)[C@@H]1CCCN1C(=O)[C@H](CC(N)=O)NC(=O)[C@H](CCCCN)NC(=O)[C@H](C)NC(=O)[C@H](CCCCN)NC(=O)[C@H](CO)NC(=O)[C@@H](N)CCCNC(=N)N)NC(=O)[C@H](CCCNC(=N)N)NC(=O)[C@H](Cc1ccc(O)cc1)NC(=O)[C@H](CC(C)C)NC(=O)[C@@H]1CCCN1C(=O)[C@H](CC(N)=O)NC(=O)[C@H](CCCCN)NC(=O)[C@H](C)NC(=O)[C@H](CCCCN)NC(=O)[C@H](CO)NC(=O)[C@@H](N)CCCNC(=N)N)C(=O)NCCCC[C@H](NC(=O)[C@H](CCCCNC(=O)[C@H](CCCNC(=N)N)NC(=O)[C@H](Cc1ccc(O)cc1)NC(=O)[C@H](CC(C)C)NC(=O)[C@@H]1CCCN1C(=O)[C@H](CC(N)=O)NC(=O)[C@H](CCCCN)NC(=O)[C@H](C)NC(=O)[C@H](CCCCN)NC(=O)[C@H](CO)NC(=O)[C@@H](N)CCCNC(=N)N)NC(=O)[C@H](CCCCNC(=O)[C@H](CCCCNC(=O)[C@H](CCCNC(=N)N)NC(=O)[C@H](Cc1ccc(O)cc1)NC(=O)[C@H](CC(C)C)NC(=O)[C@@H]1CCCN1C(=O)[C@H](CC(N)=O)NC(=O)[C@H](CCCCN)NC(=O)[C@H](C)NC(=O)[C@H](CCCCN)NC(=O)[C@H](CO)NC(=O)[C@@H](N)CCCNC(=N)N)NC(=O)[C@H](CCCNC(=N)N)NC(=O)[C@H](Cc1ccc(O)cc1)NC(=O)[C@H](CC(C)C)NC(=O)[C@@H]1CCCN1C(=O)[C@H](CC(N)=O)NC(=O)[C@H](CCCCN)NC(=O)[C@H](C)NC(=O)[C@H](CCCCN)NC(=O)[C@H](CO)NC(=O)[C@@H](N)CCCNC(=N)N)NC(=O)[C@H](CCCCNC(=O)[C@H](CCCNC(=N)N)NC(=O)[C@H](Cc1ccc(O)cc1)NC(=O)[C@H](CC(C)C)NC(=O)[C@@H]1CCCN1C(=O)[C@H](CC(N)=O)NC(=O)[C@H](CCCCN)NC(=O)[C@H](C)NC(=O)[C@H](CCCCN)NC(=O)[C@H](CO)NC(=O)[C@@H](N)CCCNC(=N)N)NC(=O)[C@H](CCCNC(=N)N)NC(=O)[C@H](Cc1ccc(O)cc1)NC(=O)[C@H](CC(C)C)NC(=O)[C@@H]1CCCN1C(=O)[C@H](CC(N)=O)NC(=O)[C@H](CCCCN)NC(=O)[C@H](C)NC(=O)[C@H](CCCCN)NC(=O)[C@H](CO)NC(=O)[C@@H](N)CCCNC(=N)N)C(=O)NCCC(N)=O [Dend 10-10(4)] | inhibited | 11 | 83 | 10
